Key:
Type in all cases: cell-based
[1] = system: Sensitive Enterococcus faecium and faecalis; test: MIC, standard broth micro-dilution assay, Sensitive; settings: geometric mean of 4-6 isolates
Protocol: (§1) The antibacterial efficacy of the present compounds is illustrated by Table III. The minimal inhibitory concentrations (MICs) were determined using a standard broth micro-dilution assay.

[2] = system: Haemophilus influenzae RD; test: MIC, standard broth micro-dilution assay, HFRD
Protocol: as §1

[3] = system: Staphylococcus aureus SA1199; test: MIC, standard broth micro-dilution assay, SA 1199
Protocol: as §1

[4] = system: Staphylococcus aureus SA1199A; test: MIC, standard broth micro-dilution assay, SA 1199A
Protocol: as §1

[5] = system: Enterococcus faecalis 2041; test: MIC, standard broth micro-dilution assay, EF 2041
Protocol: as §1

[6] = system: Staphylococcus aureus 489; test: MIC, standard broth micro-dilution assay, SA 489
Protocol: as §1

[7] = system: Enterococcus faecium 180-1; test: MIC, standard broth micro-dilution assay, EF 180-1
Protocol: as §1

[8] = system: Staphylococcus haemolyticus 415; test: MIC, standard broth micro-dilution assay, SH 415
Protocol: as §1

[9] = system: Staphylococcus aureus 447; test: MIC, standard broth micro-dilution assay, SA 447
Protocol: as §1

[10] = system: Resistant Enterococcus faecium and faecalis; test: MIC, standard broth micro-dilution assay, Resistant; settings: geometric mean of 4-6 isolates
Protocol: as §1

Enterococcus faecium 180 = test: MIC, standard broth micro-dilution assay, EF 180
Protocol: as §1

Escherichia coli EC14 = test: MIC, standard broth micro-dilution assay, EC 14
Protocol: as §1

[11] = system: Staphylococcus aureus X778; test: MIC, standard broth micro-dilution assay, SA X778
Protocol: as §1

[12] = system: Enterococcus gallinarum 245; test: MIC, standard broth micro-dilution assay, EG 245
Protocol: as §1

[13] = system: Staphylococcus haemolyticus 105; test: MIC, standard broth micro-dilution assay, SH 105
Protocol: as §1

[14] = system: Enterococcus faecalis 276; test: MIC, standard broth micro-dilution assay, EF 276
Protocol: as §1

[15] = system: Staphylococcus epidermidis 270; test: MIC, standard broth micro-dilution assay, SE 270
Protocol: as §1

[16] = system: Staphylococcus aureus 491; test: MIC, standard broth micro-dilution assay, SA 491
Protocol: as §1

[17] = system: Staphylococcus aureus X400; test: MIC, standard broth micro-dilution assay, SA X400
Protocol: as §1

[18] = system: Staphylococcus aureus 446; test: MIC, standard broth micro-dilution assay, SA 446
Protocol: as §1

[19] = system: Staphylococcus aureus S13E
Protocol: as §1

SMILES | minimal inhibitory concentration (MIC), Sensitive [1] | minimal inhibitory concentration (MIC), HFRD [2] | minimal inhibitory concentration (MIC), SA 1199 [3] | minimal inhibitory concentration (MIC), SA 1199A [4] | minimal inhibitory concentration (MIC), EF 2041 [5] | minimal inhibitory concentration (MIC), SA 489 [6] | minimal inhibitory concentration (MIC), EF 180-1 [7] | minimal inhibitory concentration (MIC), SH 415 [8] | minimal inhibitory concentration (MIC), SA 447 [9] | minimal inhibitory concentration (MIC), Resistant [10] | minimal inhibitory concentration (MIC), EF 180 (Enterococcus faecium 180) | minimal inhibitory concentration (MIC), EC 14 (Escherichia coli EC14) | minimal inhibitory concentration (MIC), SA X778 [11] | minimal inhibitory concentration (MIC), EG 245 [12] | minimal inhibitory concentration (MIC), SH 105 [13] | minimal inhibitory concentration (MIC), EF 276 [14] | minimal inhibitory concentration (MIC), SE 270 [15] | minimal inhibitory concentration (MIC), SA 491 [16] | minimal inhibitory concentration (MIC), SA X400 [17] | minimal inhibitory concentration (MIC), SA 446 [18] | further results
CC1OC(OC2c3ccc(c(Cl)c3)Oc3cc4cc(c3OC3OC(CO)C(O)C(O)C3OC3CC(C)(NCc5ccc(-c6ccccc6)cc5)C(O)C(C)O3)Oc3ccc(cc3Cl)C(O)C(NC(=O)C(N)CCCCN)C(=O)NC(CC(N)=O)C(=O)NC4C(=O)NC3C(=O)NC2C(=O)NC(C(=O)O)c2cc(O)cc(O)c2-c2cc3ccc2O)CC(C)(N)C1O [Example 31, N^1-L-lysine derivative of N^DISACC-(p-phenylbenzyl)desleucylA82846B] | 0.33 | >64 | 0.5 | 0.25 | 1 | 2 | 0.25 | 2 | 2 | 5.6 | 1 | >64 | 0.5 | 0.5 | 0.5 | 2 | 0.5 | 0.5 | 2 | 0.5 | minimal inhibitory concentration (MIC), SA S13E [19]: 1
CC1OC(OC2c3ccc(c(Cl)c3)Oc3cc4cc(c3OC3OC(CO)C(O)C(O)C3OC3CC(C)(NCc5ccc(-c6ccccc6)cc5)C(O)C(C)O3)Oc3ccc(cc3Cl)C(O)C(NC(=O)C3CCCN3)C(=O)NC(CC(N)=O)C(=O)NC4C(=O)NC3C(=O)NC2C(=O)NC(C(=O)O)c2cc(O)cc(O)c2-c2cc3ccc2O)CC(C)(N)C1O [Example 32, N^1-L-proline derivative of N^DISACC-(p-phenylbenzyl)desleucylA82846B] | 0.76 | >64 | 0.25 | ≦.06 | 1 | 1 | 0.125 | 0.5 | 1 | 16 | 2 | >64 | 0.5 | 0.5 | 0.125 | 2 | 0.125 | 0.125 | 2 | 1 | minimal inhibitory concentration (MIC), SA S13E [19]: 0.25
CC1OC(OC2c3ccc(c(Cl)c3)Oc3cc4cc(c3OC3OC(CO)C(O)C(O)C3OC3CC(C)(NCc5ccc(-c6ccccc6)cc5)C(O)C(C)O3)Oc3ccc(cc3Cl)C(O)C(NC(=O)C(N)Cc3ccc(Cl)cc3)C(=O)NC(CC(N)=O)C(=O)NC4C(=O)NC3C(=O)NC2C(=O)NC(C(=O)O)c2cc(O)cc(O)c2-c2cc3ccc2O)CC(C)(N)C1O [Example 33, N^1-[L-3-(p-chlorophenyl)alanine] derivative of N^DISACC-(p-phenylbenzyl)desleucylA82846B] | 2.6 | >64 | 0.5 | 0.25 | 2 | 2 | 0.5 | 0.5 | 1 | 27 | 4 | >64 | 1 | 1 | 0.5 | 4 | 0.25 | 0.5 | 1 | 1 | minimal inhibitory concentration (MIC), SA S13E [19]: 1
CC(C)CC(NCc1ccc(-c2ccccc2)cc1)C(=O)NC1C(=O)NC(CC(N)=O)C(=O)NC2C(=O)NC3C(=O)NC(C(=O)NC(C(=O)O)c4cc(O)cc(O)c4-c4cc3ccc4O)C(OC3CC(C)(N)C(O)C(C)O3)c3ccc(c(Cl)c3)Oc3cc2cc(c3OC2OC(CO)C(O)C(O)C2OC2CC(C)(N)C(O)C(C)O2)Oc2ccc(cc2Cl)C1O [Example 34, N^1-[N-(p-phenylbenzyl)-D-leucine] derivative of desleucylA82846B] | 0.44 | 64 | 0.125 | ≦.06 | 0.25 | ≦.06 | ≦.06 | 4 | 0.125 | 38 | 2 | >64 | ≦.06 | ≦.06 | ≦.06 | ≦.06 | 0.25 | ≦.06 | ≦.06 | 0.125 | minimal inhibitory concentration (MIC), SA S13E [19]: ≦.06
CC(C)CC(NCc1ccc(-c2ccccc2)cc1)C(=O)NC1C(=O)NC(CC(N)=O)C(=O)NC2C(=O)NC3C(=O)NC(C(=O)NC(C(=O)O)c4cc(O)cc(O)c4-c4cc3ccc4O)C(OC3CC(C)(N)C(O)C(C)O3)c3ccc(c(Cl)c3)Oc3cc2cc(c3OC2OC(CO)C(O)C(O)C2OC2CC(C)(NCc3ccc(-c4ccccc4)cc3)C(O)C(C)O2)Oc2ccc(cc2Cl)C1O [Example 35, N^1-[N-(p-phenylbenzyl)-D-leucine] derivative of N^DISACC-(p-phenylbenzyl)desleucylA82846B] | 0.66 | >64 | 2 | 1 | 0.5 | 2 | 0.25 | 2 | 2 | 4.8 | 1 | >64 | 1 | 1 | 0.5 | 1 | 1 | 1 | 2 | 2 | minimal inhibitory concentration (MIC), SA S13E [19]: 2
CC(C)CC(NC(=O)OC(C)(C)C)C(=O)NC1C(=O)NC(CC(N)=O)C(=O)NC2C(=O)NC3C(=O)NC(C(=O)NC(C(=O)O)c4cc(O)cc(O)c4-c4cc3ccc4O)C(OC3CC(C)(N)C(O)C(C)O3)c3ccc(c(Cl)c3)Oc3cc2cc(c3OC2OC(CO)C(O)C(O)C2O)Oc2ccc(cc2Cl)C1O [Example 36, N^1-(N-BOC-D-leucine) derivative of desepivancosaminyl desleucylA82846B] | 16 | >64 | 4 | 4 | 8 | 4 | 4 | >64 | 16 | >128 | >64 | >64 | 4 | 16 | 2 | 4 | 16 | 2 | 4 | 8 | minimal inhibitory concentration (MIC), SA S13E [19]: 4

From US6670446B1, “N1 modified glycopeptides” (Eli Lilly and Company, priority 1998, dated 2003)
